In ChEMBL document CHEMBL1201862, “PubChem BioAssay data set” (2004):
The source made the active and inactive calls.

What was measured:
[1] = NIH-3T3 fibroblast cytotoxicity, dose response, cytotoxicity control, cell-based, fluorescence, Alamar Blue, secondary assay (AID 2327); type: functional;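 note: NIH-3T3 mouse fibroblasts cultured with fluconazole at 8 µg/mL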
[2] = luciferase reporter signal suppression in cells – H4 neuroglioma cells, luminescence, dose response (AID 1990); type: functional, cell-based
[3] = Luminescence Cell-Based Dose Response HTS to Identify Inhibitors of 5'UTR Stem-Loop Driven Prion Protein mRNA Translation in H4 Neuroglioblastoma Cells. [Related pubchem assays: 1827 (Project Summary), 1813 (Primary HTS)]; type: functional
[4] = alpha-synuclein stem-loop luciferase translation blockers – H4 neuroglioma cells, luminescence, confirmation (AID 1988); type: functional, cell-based
[5] = fluconazole-exposed Candida albicans growth modulators – fluorescence, retest, confirmation (AID 2467); type: functional, cell-based
[6] = molecular target: DNA dC->dU-editing enzyme APOBEC-3A (Homo sapiens, UniProt P31941); experiment: Dose Response confirmation of small molecule APOBEC3A DNA Deaminase Inhibitors via a fluorescence-based single-stranded DNA deaminase assay. [Related pubchem assays (depositor defined):AID493011, AID493024]; type: functional
Sequence of DNA dC->dU-editing enzyme APOBEC-3A (P31941 whole entry): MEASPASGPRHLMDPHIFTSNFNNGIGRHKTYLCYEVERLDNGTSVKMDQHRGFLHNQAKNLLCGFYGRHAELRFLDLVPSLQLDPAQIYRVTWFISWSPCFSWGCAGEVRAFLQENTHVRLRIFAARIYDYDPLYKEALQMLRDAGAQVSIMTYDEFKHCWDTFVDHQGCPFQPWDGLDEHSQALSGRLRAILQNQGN

[7] = HEK-293T viability loss after treatment – luminescence, T-cell screen hits, cytotoxicity control for TCR NF-kB inhibitor project, dose response (AID 489026); type: functional, cell-based;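 note: cells exposed to compound about 14 hours before the viability readout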
[8] = molecular target: DNA dC->dU-editing enzyme APOBEC-3G (Homo sapiens, UniProt Q9HC16); type: functional;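 note: Dose-response counterscreen measuring inhibition of APOBEC3G DNA deaminase activity, run while confirming APOBEC3A inhibitors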
Sequence of DNA dC->dU-editing enzyme APOBEC-3G (Q9HC16 whole entry): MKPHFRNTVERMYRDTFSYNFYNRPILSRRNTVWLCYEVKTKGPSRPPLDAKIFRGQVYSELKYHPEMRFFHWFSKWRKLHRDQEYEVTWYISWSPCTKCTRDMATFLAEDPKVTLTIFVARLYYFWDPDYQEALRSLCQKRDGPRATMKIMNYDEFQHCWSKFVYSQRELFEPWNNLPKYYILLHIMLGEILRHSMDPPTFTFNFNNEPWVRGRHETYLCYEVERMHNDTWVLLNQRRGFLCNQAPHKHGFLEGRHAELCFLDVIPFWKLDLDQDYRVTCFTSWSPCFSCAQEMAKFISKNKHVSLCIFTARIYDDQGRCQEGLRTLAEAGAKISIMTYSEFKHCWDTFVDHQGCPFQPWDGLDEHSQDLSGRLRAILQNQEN

Bcl-2-like protein 10 = molecular target: T1, Bcl-2-like protein 10 (Homo sapiens, UniProt Q9HD36); experiment: Bcl-B/TR3 peptide binding disruption – biochemical, fluorescence polarization, FITC-TR3 peptide, selectivity assay for Bfl-1 inhibitor project, primary screen (AID 748);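 note: fluorescence polarization from a fluorescein-labelled TR3 peptide binding purified Bcl-B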
T1 sequence (Q9HD36 whole entry): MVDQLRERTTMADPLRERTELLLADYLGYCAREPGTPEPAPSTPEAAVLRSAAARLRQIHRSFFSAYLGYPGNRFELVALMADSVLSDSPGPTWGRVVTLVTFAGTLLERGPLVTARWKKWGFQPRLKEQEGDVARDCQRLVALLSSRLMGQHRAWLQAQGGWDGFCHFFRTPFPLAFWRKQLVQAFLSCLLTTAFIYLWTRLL

[9] = molecular target: T2, Tyrosine-protein phosphatase non-receptor type 7 (Homo sapiens, UniProt P35236); type: functional
T2 sequence (P35236 whole entry): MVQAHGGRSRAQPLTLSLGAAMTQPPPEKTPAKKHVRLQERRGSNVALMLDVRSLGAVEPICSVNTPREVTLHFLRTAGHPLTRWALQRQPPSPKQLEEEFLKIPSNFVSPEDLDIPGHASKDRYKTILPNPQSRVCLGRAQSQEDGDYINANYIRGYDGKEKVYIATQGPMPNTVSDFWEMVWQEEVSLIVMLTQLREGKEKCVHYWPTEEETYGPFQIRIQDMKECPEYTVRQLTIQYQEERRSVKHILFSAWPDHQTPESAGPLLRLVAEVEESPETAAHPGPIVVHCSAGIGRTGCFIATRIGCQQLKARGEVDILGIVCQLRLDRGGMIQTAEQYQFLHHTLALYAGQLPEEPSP

[10] = molecular target: T3, Tyrosine-protein phosphatase non-receptor type 22 (Homo sapiens, UniProt Q9Y2R2); type: functional
T3 sequence (Q9Y2R2 whole entry): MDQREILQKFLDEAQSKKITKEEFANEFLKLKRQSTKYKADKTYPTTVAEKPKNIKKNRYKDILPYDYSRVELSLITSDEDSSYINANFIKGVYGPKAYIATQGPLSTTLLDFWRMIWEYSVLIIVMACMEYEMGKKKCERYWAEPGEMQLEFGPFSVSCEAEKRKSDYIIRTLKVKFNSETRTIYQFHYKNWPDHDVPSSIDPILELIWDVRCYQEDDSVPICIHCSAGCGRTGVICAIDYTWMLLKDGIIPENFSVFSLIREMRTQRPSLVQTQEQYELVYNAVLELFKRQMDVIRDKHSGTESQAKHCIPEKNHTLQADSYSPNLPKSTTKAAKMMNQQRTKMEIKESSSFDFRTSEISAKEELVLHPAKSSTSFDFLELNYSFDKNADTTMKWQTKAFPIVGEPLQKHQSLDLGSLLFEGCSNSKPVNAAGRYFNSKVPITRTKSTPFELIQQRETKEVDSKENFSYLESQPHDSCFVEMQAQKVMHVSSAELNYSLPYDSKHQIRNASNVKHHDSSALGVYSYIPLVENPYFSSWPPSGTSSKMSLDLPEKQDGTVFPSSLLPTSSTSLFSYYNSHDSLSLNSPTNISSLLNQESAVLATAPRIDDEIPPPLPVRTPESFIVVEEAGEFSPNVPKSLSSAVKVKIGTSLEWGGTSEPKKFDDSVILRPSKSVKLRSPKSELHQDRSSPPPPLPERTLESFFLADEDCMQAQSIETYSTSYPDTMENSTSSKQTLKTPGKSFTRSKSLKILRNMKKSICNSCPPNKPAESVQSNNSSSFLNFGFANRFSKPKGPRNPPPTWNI

[11] = molecular target: T3, Tyrosine-protein phosphatase non-receptor type 22; type: functional; remark: listed apart in the source
[12] = Luminescence Cell-Based Dose Confirmation HTS to Identify Activators of 5'UTR Stem-Loop Driven Alpha-Synuclein mRNA Translation in H4 Neuroglioblastoma Cells. [Related pubchem assays: 1829 (Project Summary), 1814 (Primary HTS)]; type: functional
[13] = Luminescence Cell-Based Dose Response HTS to Identify Activators of Luciferase Translation or Activity in H4 […] Cells. [Related pubchem assays: 1829 (Project Summary), 1814 (Primary HTS)]; type: functional
H4 = experiment: Luminescence Cell-Based Dose Response HTS to Identify Activators of 5'UTR Stem-Loop Driven Prion Protein mRNA Translation in H4 Neuroglioblastoma Cells. [Related pubchem assays: 1829 (Project Summary), 1814 (Primary HTS)]; type: functional; details: Homo sapiens
cells = type: functional
Aminopeptidase N = molecular target: T4, Aminopeptidase N (Plasmodium falciparum FcB1/Columbia, UniProt O96935); experiment: malaria alanyl aminopeptidase activity blockers – biochemical, fluorogenic H-Leu-NHMec substrate, 1536-well (AID 1445); set-up: species or system Plasmodium falciparum 3D7, 3D7
T4 sequence (O96935 whole entry): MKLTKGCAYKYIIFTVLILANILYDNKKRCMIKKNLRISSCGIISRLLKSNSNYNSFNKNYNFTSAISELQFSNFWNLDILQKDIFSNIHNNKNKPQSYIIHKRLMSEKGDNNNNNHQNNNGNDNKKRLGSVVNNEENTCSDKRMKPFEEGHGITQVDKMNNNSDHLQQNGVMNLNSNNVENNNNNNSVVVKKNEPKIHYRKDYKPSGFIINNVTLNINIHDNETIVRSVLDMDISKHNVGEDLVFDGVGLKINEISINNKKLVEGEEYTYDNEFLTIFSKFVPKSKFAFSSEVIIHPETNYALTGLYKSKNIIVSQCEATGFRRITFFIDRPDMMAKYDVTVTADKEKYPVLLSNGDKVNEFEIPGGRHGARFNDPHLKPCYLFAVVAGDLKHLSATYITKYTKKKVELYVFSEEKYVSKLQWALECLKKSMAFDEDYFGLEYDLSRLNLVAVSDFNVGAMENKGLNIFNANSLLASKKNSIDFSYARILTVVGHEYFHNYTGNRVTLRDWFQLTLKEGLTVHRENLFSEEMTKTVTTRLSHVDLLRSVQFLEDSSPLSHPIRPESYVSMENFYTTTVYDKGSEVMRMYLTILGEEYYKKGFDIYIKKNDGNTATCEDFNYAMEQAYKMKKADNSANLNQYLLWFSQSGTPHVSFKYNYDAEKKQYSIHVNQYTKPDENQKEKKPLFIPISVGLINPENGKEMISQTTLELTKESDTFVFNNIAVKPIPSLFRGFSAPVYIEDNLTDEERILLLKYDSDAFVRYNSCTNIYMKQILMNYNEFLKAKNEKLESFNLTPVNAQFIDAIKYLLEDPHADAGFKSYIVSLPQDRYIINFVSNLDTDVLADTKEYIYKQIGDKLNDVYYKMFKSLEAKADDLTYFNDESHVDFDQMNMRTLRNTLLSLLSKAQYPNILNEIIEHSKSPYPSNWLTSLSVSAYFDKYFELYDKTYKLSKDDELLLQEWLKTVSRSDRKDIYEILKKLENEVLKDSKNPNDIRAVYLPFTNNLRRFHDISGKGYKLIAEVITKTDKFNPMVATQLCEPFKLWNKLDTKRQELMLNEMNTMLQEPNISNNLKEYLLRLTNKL

INS1 = experiment: INS-1E survival protection against cytokine death – cell-based, luminescence, retest, dose response (AID 449756); type: functional; details: Rattus norvegicus;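 note: cell death triggered by IL-1 beta plus TNF-alpha plus IFN-gamma mixture; protective hits raise ATP signal compared with cytokine alone wells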
Fatty acid synthase [14] = molecular target: T5, Fatty acid synthase (Homo sapiens, UniProt P49327); experiment: inhibition of human FAS-TE enzyme activity – biochemical, endpoint fluorescence intensity, uHTS hits, dose response (AID 624327); type: functional;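 note: fluorescence from hydrolysis of an O-methyl fluorescein acyl ester substrate by the enzyme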
T5 sequence (P49327 whole entry): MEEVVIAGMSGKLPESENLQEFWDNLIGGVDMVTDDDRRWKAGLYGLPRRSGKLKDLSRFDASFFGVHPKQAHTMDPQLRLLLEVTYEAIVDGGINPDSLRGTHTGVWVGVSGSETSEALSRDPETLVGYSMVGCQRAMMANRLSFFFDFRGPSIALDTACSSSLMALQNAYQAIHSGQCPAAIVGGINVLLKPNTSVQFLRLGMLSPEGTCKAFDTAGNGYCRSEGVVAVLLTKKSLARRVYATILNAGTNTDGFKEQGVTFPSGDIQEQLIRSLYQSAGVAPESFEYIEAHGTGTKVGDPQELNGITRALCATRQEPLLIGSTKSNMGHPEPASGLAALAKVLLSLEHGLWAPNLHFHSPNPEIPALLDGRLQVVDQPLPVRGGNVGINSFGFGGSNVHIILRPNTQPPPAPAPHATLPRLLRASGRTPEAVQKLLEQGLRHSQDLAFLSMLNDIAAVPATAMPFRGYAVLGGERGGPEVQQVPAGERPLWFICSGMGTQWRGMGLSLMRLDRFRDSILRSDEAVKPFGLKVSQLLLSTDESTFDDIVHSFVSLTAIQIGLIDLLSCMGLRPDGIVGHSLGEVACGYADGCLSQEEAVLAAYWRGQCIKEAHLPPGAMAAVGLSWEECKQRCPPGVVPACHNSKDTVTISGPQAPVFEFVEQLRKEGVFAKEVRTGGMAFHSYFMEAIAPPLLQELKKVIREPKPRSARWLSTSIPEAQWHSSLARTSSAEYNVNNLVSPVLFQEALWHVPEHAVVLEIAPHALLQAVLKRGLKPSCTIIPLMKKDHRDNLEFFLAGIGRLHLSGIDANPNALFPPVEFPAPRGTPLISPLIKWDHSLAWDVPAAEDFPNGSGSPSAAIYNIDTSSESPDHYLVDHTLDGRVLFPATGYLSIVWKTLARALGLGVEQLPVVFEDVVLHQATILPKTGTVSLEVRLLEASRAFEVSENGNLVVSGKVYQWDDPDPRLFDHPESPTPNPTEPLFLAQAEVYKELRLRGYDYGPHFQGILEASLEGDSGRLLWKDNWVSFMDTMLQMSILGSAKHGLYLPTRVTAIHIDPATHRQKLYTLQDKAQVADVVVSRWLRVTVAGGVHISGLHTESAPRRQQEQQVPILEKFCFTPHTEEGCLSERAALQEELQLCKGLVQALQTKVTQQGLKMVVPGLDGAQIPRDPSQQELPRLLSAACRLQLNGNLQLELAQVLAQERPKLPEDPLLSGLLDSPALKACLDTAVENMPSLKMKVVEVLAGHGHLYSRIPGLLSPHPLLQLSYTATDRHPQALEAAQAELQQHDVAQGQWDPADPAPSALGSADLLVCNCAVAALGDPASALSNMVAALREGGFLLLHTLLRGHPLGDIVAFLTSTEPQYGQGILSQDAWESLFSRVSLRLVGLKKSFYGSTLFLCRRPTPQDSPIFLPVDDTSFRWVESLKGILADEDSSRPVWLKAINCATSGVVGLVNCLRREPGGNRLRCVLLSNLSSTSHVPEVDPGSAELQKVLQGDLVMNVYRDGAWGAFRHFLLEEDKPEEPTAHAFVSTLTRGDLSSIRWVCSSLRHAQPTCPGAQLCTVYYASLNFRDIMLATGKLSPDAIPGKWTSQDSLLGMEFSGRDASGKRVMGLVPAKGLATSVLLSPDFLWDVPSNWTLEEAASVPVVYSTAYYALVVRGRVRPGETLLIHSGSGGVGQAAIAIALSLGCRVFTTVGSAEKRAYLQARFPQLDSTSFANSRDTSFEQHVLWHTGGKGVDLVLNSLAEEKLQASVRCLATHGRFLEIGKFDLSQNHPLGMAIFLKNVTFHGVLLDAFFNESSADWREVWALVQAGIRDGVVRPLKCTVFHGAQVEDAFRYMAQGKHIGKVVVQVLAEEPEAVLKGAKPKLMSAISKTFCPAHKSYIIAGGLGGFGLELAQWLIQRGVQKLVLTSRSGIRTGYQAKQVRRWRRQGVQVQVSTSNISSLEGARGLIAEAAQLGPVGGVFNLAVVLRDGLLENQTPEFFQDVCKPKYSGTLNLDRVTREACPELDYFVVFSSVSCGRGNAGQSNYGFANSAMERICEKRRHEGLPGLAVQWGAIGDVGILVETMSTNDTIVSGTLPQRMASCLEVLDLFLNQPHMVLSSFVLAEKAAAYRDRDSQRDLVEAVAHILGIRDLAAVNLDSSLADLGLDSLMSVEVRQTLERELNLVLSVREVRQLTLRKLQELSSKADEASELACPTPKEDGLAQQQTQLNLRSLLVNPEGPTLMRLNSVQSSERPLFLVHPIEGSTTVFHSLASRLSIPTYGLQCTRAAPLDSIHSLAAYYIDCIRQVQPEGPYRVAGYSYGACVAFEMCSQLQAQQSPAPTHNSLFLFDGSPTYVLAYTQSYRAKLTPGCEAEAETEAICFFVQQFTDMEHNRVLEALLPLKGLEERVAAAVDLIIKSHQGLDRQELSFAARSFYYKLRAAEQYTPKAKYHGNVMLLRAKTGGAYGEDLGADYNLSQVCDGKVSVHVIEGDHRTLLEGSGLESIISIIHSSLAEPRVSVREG

Fatty acid synthase [15] = molecular target: T5, Fatty acid synthase; experiment: inhibition of human FAS-TE enzyme activity – biochemical, kinetic fluorescence intensity, dose response (AID 624326); type: functional;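 note: rate of fluorescence rise from hydrolysis of a fluorogenic O-methyl fluorescein ester substrate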
[16] = THP-1 cell cytotoxicity, dose response, cytotoxicity control for non-replicating M. tuberculosis project (AID 489025); type: functional
[17] = HepG2 cell cytotoxicity, dose response, cytotoxicity control for non-replicating M. tuberculosis project (AID 489018); type: functional; details: Mycobacterium tuberculosis
[18] = molecular target: Eukaryotic translation initiation factor 4E (Mus musculus, UniProt P63073); experiment: blockers of eIF4G binding by eIF4E – biochemical, TR-FRET, dose response (AID 855); type: functional;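 note: potency for disrupting eIF4E binding to eIF4GI seen as loss of FRET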
Sequence of Eukaryotic translation initiation factor 4E (P63073 whole entry): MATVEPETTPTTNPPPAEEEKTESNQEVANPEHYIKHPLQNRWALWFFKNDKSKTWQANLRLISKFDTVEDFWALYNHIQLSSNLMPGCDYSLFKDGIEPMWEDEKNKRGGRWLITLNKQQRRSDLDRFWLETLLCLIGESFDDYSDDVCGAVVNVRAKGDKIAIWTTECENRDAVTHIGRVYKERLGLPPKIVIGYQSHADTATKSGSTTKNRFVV

[19] = Luminescence Cell-Based Dose Response to Identify Activators of 5'UTR Stem-Loop Driven Prion Protein mRNA Translation in H4-C Neuroglioblastoma Cells. [Related pubchem assays: 1829 (Project Summary), 1814 (Primary HTS)]; type: functional
[20] = Luminescence Cell-Based Dose Response to Identify Activators of Luciferase Translation or Activity in H4-C Neuroglioblastoma Cells. [Related pubchem assays: 1829 (Project Summary), 1814 (Primary HTS)]; type: functional
[21] = Luminescence Cell-Based Dose Confirmation to Identify Activators of 5'UTR Stem-Loop Driven Alpha-Synuclein mRNA Translation in H4 Neuroglioblastoma Cells. [Related pubchem assays: 1829 (Project Summary), 1814 (Primary HTS)]; type: functional
H9c2 = experiment: cells; type: functional, cell-based; details: Rattus norvegicus, H9c2, Myocardium;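 note: confirmatory concentration-response retest of ultra-high-throughput screening hits for modulation of myocardial damage; cell death induced by hydrogen peroxide oxidative stress; compound pretreatment for 60 min then peroxide exposure for 2 h; potency is for protecting the cells against peroxide damage rather than for killing them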
[22] = molecular target: G-protein coupled receptor 55 (Homo sapiens, UniProt Q9Y2T6); experiment: inhibition of LPI-stimulated GPR55 beta-arrestin translocation – imaging, U2OS, beta-arrestin-GFP, LPI agonist, primary screen (AID 2013); type: functional;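 note: antagonist potency measured as reduced agonist-driven arrestin aggregation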
Sequence of G-protein coupled receptor 55 (Q9Y2T6 whole entry): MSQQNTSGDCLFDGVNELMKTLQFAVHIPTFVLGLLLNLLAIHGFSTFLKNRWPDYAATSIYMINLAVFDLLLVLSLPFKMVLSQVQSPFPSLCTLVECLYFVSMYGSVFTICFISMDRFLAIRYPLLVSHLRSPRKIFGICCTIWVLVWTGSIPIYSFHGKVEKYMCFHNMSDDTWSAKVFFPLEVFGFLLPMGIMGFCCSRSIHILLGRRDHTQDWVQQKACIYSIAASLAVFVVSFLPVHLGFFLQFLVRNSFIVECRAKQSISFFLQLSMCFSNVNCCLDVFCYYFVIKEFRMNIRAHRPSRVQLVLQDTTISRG

CC[n+]1cc(C)ccc1C=Cc1ccc(N(C)C)cc1
EC50 [1]: 58.6 µM (active)
EC50 [2]: 11.7 µM (active)
EC50 [3]: 65.4 µM (active)
EC50 [4]: 10.4 µM (active)
EC50 [5]: 1.25 µM (active)
IC50 [6]: 2.73 µM (active)
IC50 [7]: > 80 µM (inactive)
IC50 [8]: 4.02 µM (active)

Cc1cccc(OCC(=O)Nc2ccc(S(=O)(=O)N3CCCC3)cc2)c1
IC50 (Bcl-2-like protein 10): > 100 µM (inactive)

Clc1ccc2nc(CN3CCCc4ccccc43)cn2c1
IC50 (Bcl-2-like protein 10): 72.5 µM (inactive)

O=C(CNC(=O)c1ccc(Cl)cc1)NCC(F)(F)F
IC50 [9]: > 79.4 µM (inactive)
IC50 [10]: > 79.4 µM (inactive)
IC50 [11]: > 79.4 µM (inactive)

CCCn1nc(NC(=O)COC)c2cc3cc(C)ccc3nc21
EC50 [12]: 3.88 µM (active)
EC50 [13]: 12.9 µM (active)
EC50 (H4): > 120 µM (inconclusive)
IC50 [6]: 2.71 µM (active)
IC50 [8]: 2.89 µM (active)

O=C(CN1CCC(NC(=O)c2cccc(F)c2)CC1)Nc1ccc(Br)cc1
IC50 (cells): 47.8 µM (active)

O=C(CNC(=O)c1ccccc1)N/N=C/c1cc(Br)ccc1O
IC50 (Aminopeptidase N): 22.6 µM (active)
AC50 (INS1): 3.5 µM (active)
IC50 (Fatty acid synthase [14]): 12.7 µM (active)
IC50 (Fatty acid synthase [15]): 10.2 µM (active)

CCSc1nnc(NC(=O)C2CCCCC2C(=O)O)s1 (stereo not drawn)
IC50 [9]: > 79.4 µM (inactive)
IC50 [10]: > 79.4 µM (inactive)
IC50 [11]: > 79.4 µM (inactive)

O=C(NNC1=C(C(=O)C(F)(F)F)CCC1)c1ccccc1Cl
CC50 [16]: 13.6 µM (active)
CC50 [17]: > 20 µM (active)

COc1ccc(CC(=O)Nc2ccc(-c3nnc(-c4ccccc4)o3)cc2)cc1OC
IC50 [18]: > 64 µM (inactive)

S=C(Nc1cccc(Cl)c1Cl)N1CCC2(CC1)OCCO2
IC50 [18]: 50 µM (inactive)

Cc1ccc(S(=O)(=O)Nc2nc3ccc(S(=O)(=O)N4CCCC4)cc3s2)cc1
IC50 (Aminopeptidase N): 53.5 µM (active)

O=C(C[n+]1cc(-c2ccc(F)cc2)n2c1CCC2)c1cccs1
EC50 [19]: 1.06 µM (active)
EC50 [12]: < 0.1 µM (active)
EC50 [13]: 0.136 µM (inconclusive)
EC50 (H4): 29.9 µM (inconclusive)
EC50 [20]: > 12 µM (not active)
EC50 [21]: 3.26 µM (active)

Cc1n(CC(O)COCc2ccccc2)c2ccccc2[n+]1C (stereo not drawn)
IC50 [6]: 2.82 µM (active)
IC50 [8]: 5.05 µM (active)

O=C(COc1ccc(F)cc1)N/N=C/c1cccc2cccnc12
CC50 [16]: 24.8 µM (active)
IC50 (cells): 17.2 µM (active)
IC50 (H9c2): 20.8 µM (active)

CCCCCn1c(C(Cc2ccccc2)NC(C)=O)nc2ccccc21 (stereo not drawn)
IC50 [22]: 4.08 µM (active)
